In patent US10472364B2 (Calithera Biosciences, Inc., priority 2016, dated 2019) one finds IC50 data, which are given here for 13 compounds.

pIC50: −log10 of the molar value.

For assay [1], the target named is endogenous, cell-bound CD73 on SK-MEL-28 cells (Homo sapiens (Human), UniProt P21589). Description: Inhibition of endogenous, cell-bound CD73 enzyme activity in SK-MEL-28 cells (Malachite Green). The class given is cell-based. The note with it: 100 μM AMP, 30 minutes at room temperature. As to the method: The day before the experiment, 5000 cells were plated per well in a 96-well plate. Cells were washed twice with […] reaction buffer (20 mM HEPES, pH 7.4, 125 mM NaCl, 1 mM KCl, 2 mM MgCl2, 10 mM glucose) to remove residual inorganic phosphate. After washing, assays contained serial dilutions of test compounds and 100 μM of AMP in a total volume of 200 μL reaction buffer, with a final DMSO concentration≤0.5%. After 30 minutes at room temperature, supernatant was removed from the cells. […] The concentration of inorganic phosphate was determined using a phosphate standard curve to determine IC50.

In a further assay the target is recombinant CD73 (Homo sapiens (Human), UniProt P21589). Description: Inhibition of the CD73 enzyme in vitro (soluble recombinant CD73, Malachite Green). Type of assay: biochemical. The note with it: recombinant CD73 0.5 nM, AMP 50 μM, 30 minutes at room temperature. The protocol:
The concentration of inorganic phosphate was determined using a phosphate standard curve.

Sequence of endogenous, cell-bound CD73 on SK-MEL-28 cells (P21589 27-574): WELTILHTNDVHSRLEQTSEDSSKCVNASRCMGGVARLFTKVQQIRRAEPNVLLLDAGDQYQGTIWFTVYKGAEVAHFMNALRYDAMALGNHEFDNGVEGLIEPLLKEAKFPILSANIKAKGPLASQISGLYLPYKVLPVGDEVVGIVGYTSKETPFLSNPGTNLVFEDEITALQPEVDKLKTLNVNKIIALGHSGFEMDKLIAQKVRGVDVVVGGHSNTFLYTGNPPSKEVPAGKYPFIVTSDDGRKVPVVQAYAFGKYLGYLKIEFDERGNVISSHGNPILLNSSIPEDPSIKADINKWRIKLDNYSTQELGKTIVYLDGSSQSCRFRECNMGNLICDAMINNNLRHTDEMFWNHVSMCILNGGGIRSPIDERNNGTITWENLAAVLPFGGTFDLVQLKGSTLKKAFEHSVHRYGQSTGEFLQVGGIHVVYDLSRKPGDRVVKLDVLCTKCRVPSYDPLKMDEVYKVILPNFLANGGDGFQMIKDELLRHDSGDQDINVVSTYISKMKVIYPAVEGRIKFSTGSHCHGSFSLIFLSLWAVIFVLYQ
Sequence of recombinant CD73 (P21589 27-547): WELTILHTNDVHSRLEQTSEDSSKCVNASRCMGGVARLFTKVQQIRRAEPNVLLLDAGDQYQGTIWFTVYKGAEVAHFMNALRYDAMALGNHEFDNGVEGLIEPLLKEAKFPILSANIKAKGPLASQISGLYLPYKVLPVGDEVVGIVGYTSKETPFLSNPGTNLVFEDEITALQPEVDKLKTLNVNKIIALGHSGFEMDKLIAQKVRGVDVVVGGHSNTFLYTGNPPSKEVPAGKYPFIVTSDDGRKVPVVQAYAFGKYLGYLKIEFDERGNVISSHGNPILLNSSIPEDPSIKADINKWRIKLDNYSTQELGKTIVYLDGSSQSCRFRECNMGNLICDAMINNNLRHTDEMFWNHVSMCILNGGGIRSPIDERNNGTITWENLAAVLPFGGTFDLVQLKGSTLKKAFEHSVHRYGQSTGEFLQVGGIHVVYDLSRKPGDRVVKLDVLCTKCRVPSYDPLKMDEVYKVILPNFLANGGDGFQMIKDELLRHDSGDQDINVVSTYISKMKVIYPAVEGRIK

With `Nc1nc(Cl)nc2c1ncn2[C@@H]1O[C@H](COC(Cc2ccc(C(=O)O)cc2)(C(=O)O)C(=O)O)[C@@H](O)[C@@H]1F` [compound 7, 2-(((2R,3R,4S,5R)-5-(6-amino-2-chloro-9H-purin-9-yl)-4-fluoro-3-hydroxytetrahydro-furan-2-yl)methoxy)-2-(4-carboxybenzyl)-malonic acid], the pIC50 was 6.59 in assay [1] and 6.92 at recombinant CD73.
For the compound `Cc1cn([C@H]2C[C@H](O)[C@@H](COC(C(=O)O)C(=O)O)O2)c(=O)[nH]c1=O` [compound 14, 2-(((2R,3S,5R)-3-hydroxy-5-(5-methyl-2,4-dioxo-3,4-dihydropyrimidin-1(2H)-yl)tetrahydrofuran-2-yl)methoxy)malonic acid], the pIC50 at recombinant CD73 is less than 4.30.
For the compound `Cn1nc(CC(OC[C@H]2O[C@@H](n3cnc4c(N)nc(Cl)nc43)[C@@H](F)[C@@H]2O)(C(=O)O)C(=O)O)cc1C(=O)O` [compound 73, 2-(((2R,3R,4S,5R)-5-(6-amino-2-chloro-9H-purin-9-yl)-4-fluoro-3-hydroxytetrahydrofuran-2-yl)methoxy)-2-((5-carboxy-1-methyl-1H-pyrazol-3-yl)methyl)malonic acid], the pIC50 is 5.91 in assay [1] and 5.06 on recombinant CD73.
In assay [1], `Nc1nc(Cl)nc2c1ncn2[C@@H]1O[C@H](COC(Cc2ccc(-c3ccccc3)cc2)(C(=O)O)C(=O)O)[C@@H](O)[C@@H]1F` [compound 79, 2-([1,1′-biphenyl]-4-ylmethyl)-2-(((2R,3R,4S,5R)-5-(6-amino-2-chloro-9H-purin-9-yl)-4-fluoro-3-hydroxytetrahydro-furan-2-yl)methoxy)malonic acid] showed a negative-log IC50 (pIC50) of 6.79.
Same read-out and setting: to `Nc1nc(Cl)nc2c1ncn2[C@@H]1O[C@H](COC(Cc2ccc(Cl)cc2F)(C(=O)O)C(=O)O)[C@@H](O)[C@@H]1F` [compound 80, 2-(((2R,3R,4S,5R)-5-(6-amino-2-chloro-9H-purin-9-yl)-4-fluoro-3-hydroxytetrahydrofuran-2-yl)methoxy)-2-(4-chloro-2-fluorobenzyl)malonic acid] belongs 6.75; to `Nc1nc(Cl)nc2c1ncn2[C@@H]1O[C@H](COC(Cc2cc(C(=O)O)no2)(C(=O)O)C(=O)O)[C@@H](O)[C@@H]1F` [compound 83, 2-(((2R,3R,4S,5R)-5-(6-amino-2-chloro-9H-purin-9-yl)-4-fluoro-3-hydroxytetrahydrofuran-2-yl)methoxy)-2-((3-carboxyisoxazol-5-yl)methyl)malonic acid], 5.28; to `COc1ccc(CC(OC[C@H]2O[C@@H](n3cnc4c(N)nc(Cl)nc43)[C@@H](F)[C@@H]2O)(C(=O)O)C(=O)O)cc1Cl` [compound 85, 2-(((2R,3R,4S,5R)-5-(6-amino-2-chloro-9H-purin-9-yl)-4-fluoro-3-hydroxytetrahydrofuran-2-yl)methoxy)-2-(3-chloro-4-methoxybenzyl)malonic acid], 5.86.
Same read-out and setting: to `Nc1nc(Cl)nc2c1ncn2[C@@H]1O[C@H](COC(Cc2ccc(S(N)(=O)=O)cc2)(C(=O)O)C(=O)O)[C@@H](O)[C@@H]1F` [compound 86, 2-(((2R,3R,4S,5R)-5-(6-amino-2-chloro-9H-purin-9-yl)-4-fluoro-3-hydroxytetrahydrofuran-2-yl)methoxy)-2-(4-sulfamoylbenzyl)malonic acid] belongs 6.20; to `Nc1nc(Cl)nc2c1ncn2[C@@H]1O[C@H](COC(Cc2ccc(C(=O)NCCC(=O)O)cc2)(C(=O)O)C(=O)O)[C@@H](O)[C@@H]1F` [compound 87, 2-(((2R,3R,4S,5R)-5-(6-amino-2-chloro-9H-purin-9-yl)-4-fluoro-3-hydroxytetrahydro-furan-2-yl)methoxy)-2-(4-((2-carboxy-ethyl)carbamoyl)benzyl)malonic acid], 6.26.
With `Nc1nc(Cl)nc2c1ncn2[C@@H]1O[C@H](COC(Cc2ccc3oc(C(=O)O)cc3c2)(C(=O)O)C(=O)O)[C@@H](O)[C@@H]1F` [compound 88, 2-(((2R,3R,4S,5R)-5-(6-amino-2-chloro-9H-purin-9-yl)-4-fluoro-3-hydroxytetrahydro-furan-2-yl)methoxy)-2-((2-carboxybenzofuran-5-yl)methyl)malonic acid], in assay [1], the negative-log IC50 (pIC50) was 6.35.
Still for that read-out and setting: the result for `Nc1nc(Cl)nc2c1ncn2[C@@H]1O[C@H](COC(Cc2ccc(OCC(F)(F)F)cc2)(C(=O)O)C(=O)O)[C@@H](O)[C@@H]1F` [compound 89, 2-(((2R,3R,4S,5R)-5-(6-amino-2-chloro-9H-purin-9-yl)-4-fluoro-3-hydroxytetrahydrofuran-2-yl)methoxy)-2-(4-(2,2,2-trifluoroethoxy)benzyl)malonic acid] reads 7.15.
As to `COC(=O)c1ccc(CC(OC[C@H]2O[C@@H](n3cnc4c(N)nc(Cl)nc43)[C@@H](F)[C@@H]2O)(C(=O)O)C(=O)O)cc1` [compound 91, 2-(((2R,3R,4S,5R)-5-(6-amino-2-chloro-9H-purin-9-yl)-4-fluoro-3-hydroxytetrahydrofuran-2-yl)methoxy)-2-(4-(methoxycarbonyl)benzyl)malonic acid], the negative logarithm of the IC50 (pIC50) at recombinant CD73 was 6.49.
Compound `Nc1nc(Cl)nc2c1ncn2[C@@H]1O[C@H](COC(Cc2ccc(OCC(=O)O)cc2)(C(=O)O)C(=O)O)[C@@H](O)[C@@H]1F` [compound 92, 2-(((2R,3R,4S,5R)-5-(6-amino-2-chloro-9H-purin-9-yl)-4-fluoro-3-hydroxytetrahydrofuran-2-yl)methoxy)-2-(4-(carboxymethoxy)benzyl)malonic acid] had a pIC50 in assay [1] of 6.69.
